Measured values published in patent US20160113932A1, “TREATMENT OF CANCERS USING PI3 KINASE ISOFORM MODULATORS” (INFINITY PHARMACEUTICALS, INC., priority 2013, published 2016).

Tests used:
[1] = tested on: TMD8; conditions: in combination with Compound 292
Description: (§1) The method is described as follows. Cells are thawed from a liquid nitrogen preserved state. Once cells have been expanded and divide at their expected doubling times, screening begins. Cells are seeded in growth media in either black 1536-well or 384-well tissue culture treated plates. […] These Tzero (T0) plates are read using ultra-sensitive luminescence on Envision plate readers (Perkin Elmer). […] All data points are collected via automated processes, quality controlled and analyzed using Zalicus software.
(§2) I ranges from 0% (when T=V) to 100% (when T=0). […] The measure of effect in the experiment can be the inhibition of cellular response relative to the untreated level (vehicle alone). For untreated vehicle and treated levels V and T, a fractional inhibition 1=1−T/V is calculated. The inhibition ranges from 0% at the untreated level to 100% when T=0 Inhibition levels are negative for agents that actually increase levels. Other effect measures, such as an activity ratio r=T/V may be more appropriate for some assays. When activity ratios (e.g, fold increase over […] control) are being used, the effect can be measured using an induction I=1n(T/V). With this definition, all effect expressions are the same as for inhibition.
(§3) Growth Inhibition (GI) is used as a measure of cell viability. […] A GI reading of 100% represents complete growth inhibition-T72 compound-treated and T0 vehicle signals are matched. […] A GI reading of 200% represents complete death of all cells in the culture well. Compounds reaching an activity plateau of GI 200% are considered cytotoxic. GI is calculated by applying the following test and equation: […]
(§4) Combination analysis data were collected in a 6×6 dose matrix. Synergy is calculated by comparing a combination's response to those of its single compound, against the drug-with-itself dose-additive reference model. Deviations from dose additivity may be assessed visually on an isobologram or numerically with a Combination Index (CI). […] Additive effect is CI=1.0. […] Antagonistic effect is CI>1.0.
(§5) To measure combination effects in excess of Loewe additivity, a scalar measure to characterize the strength of synergistic interaction termed the Synergy Score is devised. The Synergy Score is calculated as: […]
(§6) The fractional inhibition for each component agent and combination point in the matrix is calculated relative to the median of all vehicle-treated control wells. The Synergy Score equation integrates the experimentally-observed activity volume at each point in the matrix in excess of a model surface numerically derived from the activity of the component agents using the Loewe model for additivity. Additional terms in the Synergy Score equation (above) are used to normalize for various dilution factors used for individual agents and to allow for comparison of synergy scores across an entire experiment. The inclusion of positive inhibition gating or an Idata multiplier removes noise near the zero effect level, and biases results for synergistic interactions at that occur at high activity levels.
(§7) Loewe Volume (Loewe Vol) is used to assess the overall magnitude of the combination interaction in excess of the Loewe additivity model. Loewe Volume is particularly useful when distinguishing synergistic increases in a phenotypic activity (positive Loewe Volume) versus synergistic antagonisms (negative Loewe Volume). […] This model defines additivity as a non-synergistic combination interaction where the combination dose matrix surface should be indistinguishable from either drug crossed with itself.

[2] = tested on: HH; conditions: in combination with Compound 292
Description: as §1, §2, §3, §4, §5, §6, §7

[3] = tested on: WSU-NHL; conditions: in combination with Compound 292
Description: as §1, §2, §3, §4, §5, §6, §7

[4] = tested on: KARPAS-422; conditions: in combination with Compound 292
Description: as §1, §2, §3, §4, §5, §6, §7

[5] = tested on: U-2932; conditions: in combination with Compound 292
Description: as §1, §2, §3, §4, §5, §6, §7

[6] = tested on: HBL-1; conditions: in combination with Compound 292
Description: as §1, §2, §3, §4, §5, §6, §7

[7] = tested on: SU-DHL-4-epst; conditions: in combination with Compound 292
Description: as §1, §2, §3, §4, §5, §6, §7

[8] = tested on: OCI-Ly7; conditions: in combination with Compound 292
Description: as §1, §2, §3, §4, §5, §6, §7

[9] = tested on: Mino; conditions: in combination with Compound 292
Description: as §1, §2, §3, §4, §5, §6, §7

[10] = tested on: OPM-2; conditions: in combination with Compound 292
Description: as §1, §2, §3, §4, §5, §6, §7

[11] = tested on: SU-DHL-10-epst; conditions: in combination with Compound 292
Description: as §1, §2, §3, §4, §5, §6, §7

[12] = tested on: Jeko-1; conditions: in combination with Compound 292
Description: as §1, §2, §3, §4, §5, §6, §7

[13] = tested on: OCI-LY3; conditions: in combination with Compound 292
Description: as §1, §2, §3, §4, §5, §6, §7

[14] = tested on: Farage; conditions: in combination with Compound 292
Description: as §1, §2, §3, §4, §5, §6, §7

[15] = tested on: NCI-H929; conditions: in combination with Compound 292
Description: as §1, §2, §3, §4, §5, §6, §7

[16] = tested on: GRANTA-519; conditions: in combination with Compound 292
Description: as §1, §2, §3, §4, §5, §6, §7

[17] = tested on: KARPAS-299; conditions: in combination with Compound 292
Description: as §1, §2, §3, §4, §5, §6, §7

[18] = tested on: DOHH-2; conditions: in combination with Compound 292
Description: as §1, §2, §3, §4, §5, §6, §7

[19] = tested on: SU-DHL-4 GCB DLBCL cell line; experiment: Cell viability with Compound 292, ibrutinib or combination, 72 h CellTiter Glo; type: cell-based; conditions: SU-DHL-4, 72 hours
[20] = tested on: phospho-BTK in SU-DHL-4; experiment: phospho-BTK in DLBCL cells; type: cell-based
[21] = tested on: phospho-AKT in OCI-LY-8 cells; experiment: phospho-AKT after BCR crosslinking; type: cell-based
Description: Activation of the PI3K pathway is an important component of normal B-cell receptor (BCR) signaling and has been implicated in the pathogenesis of DLBCL. […] There was rapid modulation of phospho-AKT and phospho-PRAS40 by 30 minutes, whereas modulation of phospho-S6 was not detected until after 8 hours.
These biochemical findings indicate a mechanistic rationale for combination of PI3K-δ,γ and BTK inhibition.

[22] = tested on: RL; experiment: Combination with BTK inhibitor, 72 h ATPLite, 6x6 dose matrix (follicular lymphoma); type: cell-based; conditions: in combination with Compound 292
Description: as §1, §2, §3, §4, §5, §6, §7

C=CC(=O)N1CCC[C@@H](n2nc(-c3ccc(Oc4ccccc4)cc3)c3c(N)ncnc32)C1 [ibrutinib, 1-[(3R)-3-[4-Amino-3-(4-phenoxyphenyl)pyrazolo[3,4-d]pyrimidin-1-yl]piperidin-1-yl]prop-2-en-1-one] was tested, and the “CI50 (growth inhibition)” value [1] was “S (S=0.01 to <0.5)”, the “CI50 (inhibition)” value [1] was “S (S=0.01 to <0.5)” and the “Synergy Score (growth inhibition)” value [1] was “A3 (A3=>3)”. The “Synergy Score (inhibition)” value [1] was “A3 (A3=>3)”, the “CI50 (growth inhibition)” value [2] was “S (S=0.01 to <0.5)” and the “CI50 (inhibition)” value [2] was “S (S=0.01 to <0.5)”. The “Synergy Score (growth inhibition)” value [2] was “A2 (A2=1 to <3)”, the “Synergy Score (inhibition)” value [2] was “A2 (A2=1 to <3)” and the “CI50 (growth inhibition)” value [3] was “T (T=0.5 to <0.7)”. For the same compound, the “CI50 (inhibition)” value [3] was “S (S=0.01 to <0.5)”, the “Synergy Score (growth inhibition)” value [3] was “A3 (A3=>3)” and the “Synergy Score (inhibition)” value [3] was “A3 (A3=>3)”. The “CI50 (growth inhibition)” value [4] was “S (S=0.01 to <0.5)”, the “CI50 (inhibition)” value [4] was “S (S=0.01 to <0.5)” and the “Synergy Score (growth inhibition)” value [4] was “A2 (A2=1 to <3)”. For the same compound, the “Synergy Score (inhibition)” value [4] was “A2 (A2=1 to <3)”, the “CI50 (growth inhibition)” value [5] was “S (S=0.01 to <0.5)” and the “CI50 (inhibition)” value [5] was “T (T=0.5 to <0.7)”. The “Synergy Score (growth inhibition)” value [5] was “A2 (A2=1 to <3)”, the “Synergy Score (inhibition)” value [5] was “A1 (A1=0.0001 to <1)” and the “CI50 (growth inhibition)” value [6] was “S (S=0.01 to <0.5)”. The “Synergy Score (growth inhibition)” value [6] was “A3 (A3=>3)”, the “Synergy Score (inhibition)” value [6] was “A1 (A1=0.0001 to <1)” and the “CI50 (growth inhibition)” value [7] was “S (S=0.01 to <0.5)”. The “CI50 (inhibition)” value [7] was “S (S=0.01 to <0.5)”, the “Synergy Score (growth inhibition)” value [7] was “A3 (A3=>3)” and the “Synergy Score (inhibition)” value [7] was “A3 (A3=>3)”. The “Synergy Score (growth inhibition)” value [8] was “A1 (A1=0.0001 to <1)”, the “Synergy Score (inhibition)” value [8] was “A1 (A1=0.0001 to <1)” and the “CI50 (growth inhibition)” value [9] was “T (T=0.5 to <0.7)”. The “CI50 (inhibition)” value [9] was “S (S=0.01 to <0.5)”, the “Synergy Score (growth inhibition)” value [9] was “A3 (A3=>3)” and the “Synergy Score (inhibition)” value [9] was “A2 (A2=1 to <3)”. For the same compound, the “Synergy Score (growth inhibition)” value [10] was “A1 (A1=0.0001 to <1)”, the “Synergy Score (inhibition)” value [10] was “A1 (A1=0.0001 to <1)” and the “CI50 (growth inhibition)” value [11] was “S (S=0.01 to <0.5)”. For the same compound, the “CI50 (inhibition)” value [11] was “S (S=0.01 to <0.5)”, the “Synergy Score (growth inhibition)” value [11] was “A3 (A3=>3)” and the “Synergy Score (inhibition)” value [11] was “A3 (A3=>3)”. For the same compound, the “CI50 (growth inhibition)” value [12] was “S (S=0.01 to <0.5)”, the “CI50 (inhibition)” value [12] was “T (T=0.5 to <0.7)” and the “Synergy Score (growth inhibition)” value [12] was “A2 (A2=1 to <3)”. For the same compound, the “Synergy Score (inhibition)” value [12] was “A2 (A2=1 to <3)”, the “Synergy Score (growth inhibition)” value [13] was “A1 (A1=0.0001 to <1)” and the “Synergy Score (inhibition)” value [13] was “A1 (A1=0.0001 to <1)”. The “CI50 (growth inhibition)” value [14] was “S (S=0.01 to <0.5)”, the “CI50 (inhibition)” value [14] was “S (S=0.01 to <0.5)” and the “Synergy Score (growth inhibition)” value [14] was “A3 (A3=>3)”. For the same compound, the “Synergy Score (inhibition)” value [14] was “A3 (A3=>3)”, the “CI50 (growth inhibition)” value [15] was “U (U=0.7 to <1)” and the “CI50 (inhibition)” value [15] was “S (S=0.01 to <0.5)”. For the same compound, the “Synergy Score (growth inhibition)” value [15] was “A2 (A2=1 to <3)”, the “Synergy Score (inhibition)” value [15] was “A1 (A1=0.0001 to <1)” and the “CI50 (growth inhibition)” value [16] was “S (S=0.01 to <0.5)”. For the same compound, the “Synergy Score (growth inhibition)” value [16] was “A2 (A2=1 to <3)”, the “Synergy Score (inhibition)” value [16] was “A1 (A1=0.0001 to <1)” and the “Synergy Score (growth inhibition)” value [17] was “A1 (A1=0.0001 to <1)”. For the same compound, the “Synergy Score (inhibition)” value [17] was “A1 (A1=0.0001 to <1)”, the “CI50 (growth inhibition)” value [18] was “S (S=0.01 to <0.5)” and the “CI50 (inhibition)” value [18] was “S (S=0.01 to <0.5)”. For the same compound, the “Synergy Score (growth inhibition)” value [18] was “A3 (A3=>3)”, the “Synergy Score (inhibition)” value [18] was “A3 (A3=>3)” and the “cell viability, monotherapy” value [19] was “dose dependently inhibited viability”. The “inhibition of phospho-BTK” value [20] was “robust inhibition”, the “inhibition of the increase in phospho-AKT” value [21] was “only partially inhibited” and the “CI50 (growth inhibition)” value [22] was “U (U=0.7 to <1)”. The “CI50 (inhibition)” value [22] was “W (W=≧1)”, the “Synergy Score (growth inhibition)” value [22] was “A2 (A2=1 to <3)” and the “Synergy Score (inhibition)” value [22] was “A2 (A2=1 to <3)”.
